The assay deals with T. gondii ME49Luc in IFN-y HeLa, luciferase, 72 h. In words: T. gondii growth inhibition with IFN-gamma, dose response, cell-based, ME49Luc, HeLa, luciferase, 72 h (AID 1259418).

Values joined by “and” are separate entries in the source; they are usually repeats but may differ in a detail not shown here. Equal values may be shown once. Inconclusive results are not listed. Active and inactive are the calls of the source.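 The calls were made as follows: active = fitted half-maximal concentration of signal decrease at or below twice the sample's top tested concentration; inconclusive = flat curve between -70 and -30 percent, or poor fit; inactive = flat within 30 percent, signal rise, or potency above limit.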 Positions of bridges follow the written chain, without caps; N, C: chain ends. Non-standard residues stand in square brackets, D forms with d. Residues, ends and D or L forms follow the SMILES beside them. ξ: configuration not given here. *: point of attachment. Heptanoyl(6-Me) = CC(C)CCCCC(=O)*; ξDab = NCCC(N)C(=O)O; ξT = CC(O)C(N)C(=O)O Where only a bound is given, the exact number is not on record here.

In the case of `COc1ccc(OC)c(S(=O)(=O)N2CCc3c([nH]c4ccccc34)C2c2cc(F)ccc2F)c1` (stereo not given), the AC50 is > 39000 nM (inactive).
For `CS(=O)(=O)N1CCc2sc(C(=O)Nc3ccc(Cl)cc3)cc21`, the AC50 was 3360 nM.
To `CC(C)CC(=O)N1CCC2(CC1)Nc1cc(F)ccc1-n1cccc12` belongs > 39000 nM (inactive); to `O=C(C1CCCCC1)N1CCC2(CC1)Nc1ccc(Cl)cc1-n1cccc12`, 24600 nM.
With `COc1ccccc1C#Cc1ccc([C@@H]2[C@@H](CO)N3CCCCN(C(=O)C4CCC4)C[C@H]23)cc1` the figure was 28800 nM and 14600 nM; with `N#Cc1cccc(-c2ccc([C@@H]3[C@H]4CN(Cc5ccccc5F)CCCCN4[C@H]3CO)cc2)c1`, 16500 nM; with `COc1cc(Nc2nc(SCc3ccc(F)cc3)nc3ccccc23)cc(OC)c1`, 13200 nM.
With `COc1ccc(-c2nc(NCCCN3CCOCC3)c3ccccc3n2)cc1` the figure was 16600 nM; with `CC(C)(C)NC(=O)[C@@H]1CC2CCCCC2CN1C[C@@H](O)[C@H](Cc1ccccc1)NC(=O)[C@H](CC(N)=O)NC(=O)c1ccc2ccccc2n1` (stereo not given in full), 17800 nM; with `CCN(c1ccccc1C)S(=O)(=O)c1cc2c3c(c1)CCC(=O)N3CCC2`, 13000 nM.
For `Cc1ccsc1C(=O)N1CCc2nc(N3CCOCC3)nc(NC(C)C)c2C1`, the AC50 is > 39000 nM (inactive).
With `COC(=O)C[C@H]1CC[C@@H]2[C@H](COc3ccc(NC(=O)Nc4cccc(C#N)c4)cc3C(=O)N2C)O1` the figure was 19500 nM; with `Cc1ccc(-c2nc(CN3CCN(C(=O)Nc4ccc(C)c(Cl)c4)CC3)c(C)o2)cc1`, > 39000 nM (inactive); with `CCCCCCCCCCCCCCCC[N+](C)(C)C`, 16300 nM.
To `O=C(c1ccccc1Cl)N1CCC2(CC1)Nc1cc(F)ccc1-n1cccc12` belongs > 39000 nM (inactive); to `CCOc1ccccc1N(Cc1nc(-c2ccccc2)oc1C)S(=O)(=O)c1cccs1`, 7760 nM; to `CC(C)CCCCC(=O)NC(CCN)C(=O)NC(C(=O)NC(CCN)C(=O)NC1CCNC(=O)C(C(C)O)NC(=O)C(CCN)NC(=O)C(CCN)NC(=O)[C@H](CC(C)C)NC(=O)[C@@H](CC(C)C)NC(=O)C(CCN)NC1=O)C(C)O` (stereo partly drawn) ({Heptanoyl(6-Me)}-[ξDab][ξT][ξDab][ξDab][ξDab][dL]L[ξDab][ξDab][ξT]; lactam 4-C), 18300 nM.
As to `COc1ccccc1-c1noc(-c2nnn(Cc3nc(-c4ccc(C)cc4)oc3C)c2C)n1`, the AC50 is 15000 nM.
To `COc1ccc(C#Cc2ccc([C@@H]3[C@H]4CN(C(=O)NC(C)C)CC(=O)N4[C@H]3CO)cc2)cc1` belongs 9330 nM and 7450 nM; to `COCC(=O)N1[C@H](C#N)[C@H](c2ccc(C#Cc3ccccc3F)cc2)[C@@H]1CO`, > 39000 nM (inactive); to `O=S(=O)(c1ccccc1)N(CC(F)(F)F)c1ccc(C(O)(C(F)(F)F)C(F)(F)F)cc1`, 19000 nM.
On to `N#CCSC1=Nc2ccccc2C2=NC(CC(=O)NCc3cccs3)C(=O)N12` (stereo not given), for which the AC50 was 19600 nM.
With `CC(C)N1c2ccc(F)cc2[C@@H]2CN(C(=O)c3ccco3)CC[C@H]21` the figure was 12800 nM; with `Cc1ccc(CSC2=Nc3ccccc3C3=NC(CCC(=O)NCCc4ccccc4)C(=O)N23)cc1` (stereo not given), 30800 nM; with `Fc1ccc(Nc2nc(SCc3ccc(Cl)cc3)nc3ccccc23)cc1F`, 17300 nM.
With `O=S(=O)(c1ccc2c(c1)CCCC2)N1CCC2(CC1)NCCN=C2NCc1cc(F)cc(F)c1`, the half-maximal activity concentration (AC50) was 4410 nM.
On to `COc1ccc(N(Cc2nc(-c3ccccc3OC)oc2C)S(=O)(=O)c2cccs2)cc1`, for which the AC50 is 3720 nM.
To `O=C(c1ccc(F)cc1)N1CC(=O)N2[C@H](CO)[C@H](c3ccc(C#CCC4CCCC4)cc3)[C@@H]2C1` belongs 14400 nM and 12000 nM; to `CC(C)CC#Cc1ccc([C@@H]2[C@@H](CO)N3C(=O)CN(C(=O)c4cccc(F)c4)C[C@@H]23)cc1`, 15000 nM and 9460 nM.
As to `O=C(C[C@@H]1CC[C@@H]2[C@H](COC[C@@H](O)CN2S(=O)(=O)c2ccccc2)O1)NCC1CCCCC1`, the concentration at half-maximal activity (AC50) was 20800 nM.
As for `O=C(CCC1N=C2c3ccccc3N=C(SCc3ccc(F)cc3)N2C1=O)NC1CCCCC1` (stereo not given), the half-maximal activity concentration (AC50) was 16200 nM.
Take `Cc1ccc2[nH]c(C(=O)NCc3ccncc3)c(NC(=O)c3ccc(F)cc3)c2c1`: the AC50 is 1990 nM.
To `CCOc1ccc(-c2nc(CN3CCN(C(=O)Nc4ccc(Cl)cc4)CC3)c(C)o2)cc1` belongs 5170 nM; to `CC(C)c1ccc(S(=O)(=O)N2CCC3(CC2)NCCN=C3NCc2ccc3c(c2)OCO3)cc1`, 33600 nM; to `Cc1ccc(S(=O)(=O)Nc2ccc3c(c2)C(=O)N([C@@H](C)CO)C[C@H](C)[C@H](CN(C)Cc2ccc(C(F)(F)F)cc2)O3)cc1`, 18200 nM.
On to `Cc1ccc(CNC(=O)CC2Nc3c4ccccc4nc(=S)n3C2=O)cc1` (stereo not given), for which the AC50 was 31500 nM.
With `O=C(c1cnccn1)N1CC(=O)N2[C@H](C1)[C@H](c1ccc(/C=C/c3ccccc3)cc1)[C@@H]2CO` the figure was 11900 nM and 23500 nM; with `CCc1ccc(C(=O)Nc2ccc3c(c2)CCC(=O)N3C)cc1`, 7060 nM.
On to `O=C(CCC1N=C2c3ccccc3N=C(SCc3ccc(F)cc3)N2C1=O)NCc1ccc(F)cc1` (stereo not given), for which the AC50 was > 39000 nM (inactive).
Regarding `Fc1cccc(CSc2nc(NC3CCCCC3)c3ccccc3n2)c1`, the AC50 was > 39000 nM (inactive).
To `CCc1ccc(S(=O)(=O)N2CCC3(CC2)NCCN=C3NCc2ccc(F)cc2)cc1` belongs 6640 nM; to `CC(C)CC#Cc1ccc([C@H]2[C@H]3CN(C(=O)Nc4cc(F)ccc4F)CC(=O)N3[C@H]2CO)cc1`, > 39 µM (inactive) and 8.8 µM.
As for `COc1cccc(-c2ccc3c(c2)[C@@H]2[C@@H](CCN2C(=O)c2ccccc2F)[C@H](CO)N3C)c1`, the AC50 was 14400 nM and 10900 nM.
Turning to `OC[C@@H]1Nc2ccc(C#Cc3ccc(F)cc3)cc2[C@@H]2[C@H]1CCN2Cc1ccc2c(c1)OCO2`, the half-maximal activity concentration (AC50) is 15400 nM and 23400 nM.
With `N#C[C@@H]1[C@@H](c2ccc(C#Cc3cccnc3)cc2)[C@@H](CO)N1C(=O)NC1CCCCC1` the figure was 13600 nM.
With `O=C(NCCc1csc(-c2ccccc2)n1)[C@H]1CCCN1C(=O)Cc1ccc(Cl)cc1` the figure was > 39000 nM (inactive); with `COc1cccc(C(=O)Nc2ccc3c(c2)C(=O)N(C)[C@@H]2CC[C@H](CC(=O)NCc4ccc(F)cc4)O[C@@H]2CO3)c1`, 9130 nM; with `COc1ccccc1CNC(=O)CCC1N=C2c3ccccc3N=C(SCc3cccc(F)c3)N2C1=O` (stereo not given), > 39000 nM (inactive).
To `O=C(CC1Nc2c3ccccc3nc(=S)n2C1=O)NCc1ccc2c(c1)OCO2` (stereo not given) belongs > 39000 nM (inactive); to `O=C1CN(S(=O)(=O)c2cccc(F)c2)C[C@@H]2[C@@H](c3ccc(C4=CCCC4)cc3)[C@H](CO)N12`, > 39000 nM (inactive); to `Cc1ccc(C(=O)Nc2c(C(=O)NCc3ccccn3)[nH]c3ccc(C)cc23)cc1`, 25300 nM.
Regarding `COc1cccc(N(Cc2nc(-c3cccc(C)c3)oc2C)S(=O)(=O)c2ccccc2)c1`, the concentration at half-maximal activity (AC50) is 8500 nM.
`O=C(c1ccc(F)cc1)N1CC(=O)N2[C@H](C1)[C@H](c1ccc(C#CCC3CCCC3)cc1)[C@@H]2CO`: the concentration at half-maximal activity (AC50) was 10600 nM.
Turning to `Cc1ccc(CNC2=NCCNC23CCN(S(=O)(=O)c2cc(C)c(C)cc2C)CC3)cc1`, the concentration at half-maximal activity (AC50) is 4790 nM.
To `Fc1ccccc1CSc1nc(Nc2ccc3c(c2)OCO3)c2ccccc2n1` belongs 33200 nM.

The AC50 is the midpoint of the concentration-response curve, whichever way the signal moves.

The values above are taken from PubChem BioAssay AID1259418 (Broad Institute, 2018).
